# How the values were obtained:
# [1] = system: MRL/lpr mice; experiment: Lymphomegaly, splenomegaly and spleen leukocyte counts in MRL/lpr lupus model; type: in vivo, mouse; details: for total spleen leukocyte counts compared to vehicle: p<0.05; for mice without lymphomegaly: vehicle 0%
# Experimental: Six week old lupus-prone, female, MRL/lpr (Jackson Labs, #000485) and non-lupus prone control MRL/MpJ (Jackson Labs, #000486) mice were obtained from Jackson Laboratories (Bar Harbor, Me.) at 6-weeks of age. Spontaneous SLE-prone NZBWF1/J (NZM) (catalog no. 100008) female mice and non-lupus prone (within time from of experiment) NZW/LacJ (catalog no. 001058) female mice were obtained from Jackson Laboratories (Bar Harbor, Me.) at 15-weeks of age. All mice were maintained on a […] light/dark cycle, with food and water available ad libitum. All experimental animal procedures were approved by and in accordance to the regulations of the Institutional Animal Care and Use Committee (IACUC) of Cephalon, Inc; approved IACUC protocol #03-040 and #03-03-041. […] Due to this impaired tolerance mechanism, a percentage of all T and B cells that enter the periphery have a high likelihood of responding to self protein/tissues and thus initiate autoimmunity early in life. The MRL/lpr model mice develop several chronic inflammatory disease-like symptoms that are characteristic of early and late lupus including the generation of anti-nuclear antibodies, arthritis, dermatological manifestations, immunocomplex-mediated glomerulonephritis leading to proteinuria and eventual death. Lesser characterized phenomenon are CNS and cardiac manifestations, both of which are more common in humans. […] Mortality is higher in the females and occurs around 25 weeks of age, renal disease includes glomerulonephritis, glomerular infiltrates, sclerosis and vasculitis. Both splenomegaly and lymphomegaly associated with dermatitis can also be observed. […] Mice were tracked on an individual basis.
# [2] = mouse, in vivo
# Excerpt: (§1) MRL/lpr mice were first randomized, initial bleeds collected, and body weights recorded for baseline measurements (FIG. 1). All mice were individually ear tagged and were monitored throughout the entire experiment (e.g., “Group#-Cage letter-Mouse#”, so “3B5”=Group 3 (G3), cage B, mouse#5). Mice were age-matched and treatment started at 6-8 weeks of age. Cheek bleeds and urine collection continued weekly throughout the experiment. Mice were individually tracked for several parameters including cytokine and ANA levels, proteinuria, body mass, lymphomegaly, general health, and mortality. All parameters were evaluated bi-monthly except mortality which was monitored daily. All groups consisted of a minimum of at least 10-12 mice per group. Ex vivo experiments included flow cytometry analyses for plasma cells, serum complement C3 and ANA levels; urine protein and leukocytes, serum cytokine profiling, renal histo pathology, and determination of compound levels (pharmacokinetics (PK)) in the spleen, kidney and plasma. Mice were tracked on an individual basis. For all data, mice were grouped into populations and data graphed as mean±SEM. Bi-monthly observations and data collected were recorded for each group, except mortality which was performed daily. End-stage readouts were analyzed as described in the MATERIALS AND METHODS section (above) and in FIG. 1. […]
# [3] = system: pSTAT3; experiment: Pharmacodynamic renal pSTAT3 (JAK2 inhibition marker) in MRL/lpr mice; type: in vivo, mouse; details: four hours after final dosing at EOS
# Excerpt: as §1
# [4] = system: pSTAT3; experiment: Pharmacodynamic kidney pSTAT3 (JAK2 inhibition marker) in NZM mice; type: in vivo, mouse; details: vs vehicle or CTX, p<0.01
# Experimental: Age mated, female, NZM or NZW/LacJ, mice were matured for the study of lupus nephritis for a total of 7 months or 210 days at which time urine was collected for proteinuria detection. Mice with 0.5-1.0 mg/ml of urine protein as determined by an optical density-based total protein precipitation assay and cross-checked for 30-300 mg/dl of protein as determined by a stick assay were considered proteinuria positive and selected for study entry. Groups were normalized to contain a Gaussian distribution of proteinuria positive animals (i.e., ⅓ low proteinuria, ⅓ medium, ⅓ high) then randomized between groups before ear marking and taking baseline measures including urine and serum collections. A total of five mice from the total population were randomly selected for baseline kidney histology evaluation. Treatments and tests for each group are as described in FIG. 12. Briefly, with a minimum of 10 mice per group, COMPOUND A was administered at 100 mg/kg or 55 mg/kg, both twice a day and orally. […] Vehicle included 3% DMSO, 10% Solutol and 87% PBS. […] End-stage lupus nephritis was evaluated by histopathology and scored by a board certified pathologist for the assessment of total renal damage in diseased animals using the scoring method described by Smith et al (Smith, Dong et al. 2007). […] Day-98 or “end of treatment/study” represents 310 days of age for the NZM animals.
# [5] = system: IL-6; experiment: Serum IL-6 in NZM mice; type: in vivo, mouse
# Experimental: For the processing of serum samples for cytokine analysis, frozen plasma at −80° C. was thawed on ice, vortexed, and centrifuged for 10 minutes to remove debris and aggregates. A total of 25-50 μL of serum was used for Luminex® assays following the manufacturer's instructions. Ten different mouse cytokines were measured using the mouse cytokine 10-plex bead kit (Invitrogen, Carlsbad, Calif., no. LMC0001). Briefly, filter plates (Millipore, Billerica, Mass., no. MAIPSWU10), were pre-wet with 200 μL of wash solution (kit component) and 25 μL of beads were added per well. […]
# Age mated, female, NZM or NZW/LacJ, mice were matured for the study of lupus nephritis for a total of 7 months or 210 days at which time urine was collected for proteinuria detection. Mice with 0.5-1.0 mg/ml of urine protein as determined by an optical density-based total protein precipitation assay and cross-checked for 30-300 mg/dl of protein as determined by a stick assay were considered proteinuria positive and selected for study entry. […] End-stage lupus nephritis was evaluated by histopathology and scored by a board certified pathologist for the assessment of total renal damage in diseased animals using the scoring method described by Smith et al (Smith, Dong et al. 2007). […]
smiles,measurement,setting,value
"CN1CCN(c2cccc(Nc3nc4c(-c5ccc(S(C)(=O)=O)cc5)cccn4n3)c2)CC1 [COMPOUND A, [8-(4-methanesulfonyl-phenyl)-[1,2,4]triazolo[1,5-a]pyridin-2-yl]-[3-(4-methyl-piperazin-1-yl)-phenyl]-amine]",spleen mass decrease vs. vehicle,[1]; 55 mg/kg p.o. b.i.d.,49.4%
same,total spleen leukocyte counts compared to vehicle,[1]; 55 mg/kg p.o. b.i.d.,reduced total leukocyte counts
same,mice without lymphomegaly,[1]; 55 mg/kg p.o. b.i.d.,100%
same,spleen mass decrease vs. vehicle,[1]; 100 mg/kg p.o. b.i.d.,74.1%
same,spleen mass relative to non-lupus control animal (MRL/Mp; 98 mg),[1]; 100 mg/kg p.o. b.i.d.,decreased spleen mass to the level of a non-lupus control animal
same,total spleen leukocyte counts compared to vehicle,[1]; 100 mg/kg p.o. b.i.d.,reduced total leukocyte counts
same,mice without lymphomegaly,[1]; 100 mg/kg p.o. b.i.d.,100%
same,overt toxicity,[2],overt toxicity was not observed
same,renal pSTAT3,[3]; 55 mg/kg,Significant reductions
same,renal pSTAT3,[3]; 100 mg/kg,Significant reductions
same,levels of pSTAT3 in the kidneys,[4],significantly lower
same,serum IL-6 decrease compared to vehicle,[5]; 55 mg/kg,98.2%
same,serum IL-6 decrease compared to vehicle,[5]; 100 mg/kg,97.0%

# From patent publication US9023853B2, “Janus kinase 2 (JAK2) inhibitor for the treatment of lupus” (Cephalon, Inc., priority 2010, dated 2015)
